The text below walks through data of patent US9056922B2, “Chimeric relaxin polypeptides comprising an A and B chain derived from different relaxin family peptides” (HOWARD FLOREY INSTITUTE OF EX[…] MEDICINE, priority 2007, dated 2015).

The target of one assay is T1, LGR7 (RXFP1) receptor (Homo sapiens, UniProt Q9HBX9).
T1 construct: expressed in transfected cells; host or cells: HEK-293T
T1 sequence (Q9HBX9 1-757): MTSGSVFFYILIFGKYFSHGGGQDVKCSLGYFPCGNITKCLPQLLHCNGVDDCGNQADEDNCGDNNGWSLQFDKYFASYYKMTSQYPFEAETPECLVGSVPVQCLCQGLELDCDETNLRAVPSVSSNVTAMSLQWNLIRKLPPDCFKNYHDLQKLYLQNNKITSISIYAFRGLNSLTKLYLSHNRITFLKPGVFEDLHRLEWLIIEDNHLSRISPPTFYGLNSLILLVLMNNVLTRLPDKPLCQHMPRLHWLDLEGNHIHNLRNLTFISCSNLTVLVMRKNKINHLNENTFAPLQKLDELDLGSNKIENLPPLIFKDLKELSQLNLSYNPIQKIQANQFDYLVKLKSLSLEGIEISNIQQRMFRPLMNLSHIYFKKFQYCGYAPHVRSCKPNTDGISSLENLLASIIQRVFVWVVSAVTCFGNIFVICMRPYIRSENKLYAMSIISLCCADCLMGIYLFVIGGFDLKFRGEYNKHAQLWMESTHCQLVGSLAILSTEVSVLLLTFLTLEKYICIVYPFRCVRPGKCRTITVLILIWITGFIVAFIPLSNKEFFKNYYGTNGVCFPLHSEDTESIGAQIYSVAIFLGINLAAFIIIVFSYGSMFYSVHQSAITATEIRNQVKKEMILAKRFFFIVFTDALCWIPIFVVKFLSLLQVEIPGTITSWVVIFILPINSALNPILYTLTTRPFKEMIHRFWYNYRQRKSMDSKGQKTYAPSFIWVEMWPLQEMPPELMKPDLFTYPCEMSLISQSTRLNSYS
The assay is described as follows: cAMP reporter gene assay (pCRE-β-galactosidase) in LGR7-expressing cells. The assay is classed as cell-based. Here is the method: In the present study the inventors investigated the ability of chimeric polypeptides generated herein (see Example 1) to stimulate cAMP production in cells expressing either the LGR7 or LGR8 receptor.
Receptor cAMP signaling was assessed using a cAMP reporter gene assay. […] Transfected cells were incubated with increasing concentrations of peptides for 6 hrs after which the media was aspirated and the cells frozen at −80° C. overnight. The amount of cAMP-driven β-galactosidase expression in each well was determined by incubating the cells in 25 μl of lysis buffer (10 mM Na2HPO4, pH 8.0, 0.2 mM MgSO4, 0.01 mM MnCl2) for 10 minutes, 100 μl of assay buffer (100 mM Na2HPO4, pH 8.0, 2 mM MgSO4, 0.1 mM MnCl2, 0.5% Triton X-100, 40 mM B-mercaptoethanol) for a further 10 minutes before 25 μL of enzyme substrate solution (1 mg/ml chlorophenol red B-D galactopyranoside (Roche) in 100 mM Na2HPO4, pH 8.0, 2 mM MgSO4, 0.1 mM MnCl2) was added to each well and the plate incubated for 3 h or overnight. The absorbance of each well was determined at 570 nm using a Ceres UV900C plate reader (Bio-Tek Instruments, Vermont, USA).
All experiments were repeated at least three times with triplicate determinations within each assay.
Data are presented as the mean±S.E.M. of […] (number performed shown in parentheses in Table 1) performed in triplicate.

Another assay concerns the target LGR8 (RXFP2) receptor (Homo sapiens, UniProt Q8WXD0). The assay is described as follows: cell-based.
In the next assay the target is T2, LGR7 receptor (Homo sapiens, UniProt Q9HBX9).
T2 construct: expressed in transfected cells; host or cells: HEK293T
T2 sequence (Q9HBX9 1-757): T1 sequence (Q9HBX9 1-757)
Briefly: Whole cell [125I]-labelled H2 relaxin competition binding assay.

Structures are written as SMILES.

Chain of LGR8 (RXFP2) receptor (Q8WXD0 whole entry): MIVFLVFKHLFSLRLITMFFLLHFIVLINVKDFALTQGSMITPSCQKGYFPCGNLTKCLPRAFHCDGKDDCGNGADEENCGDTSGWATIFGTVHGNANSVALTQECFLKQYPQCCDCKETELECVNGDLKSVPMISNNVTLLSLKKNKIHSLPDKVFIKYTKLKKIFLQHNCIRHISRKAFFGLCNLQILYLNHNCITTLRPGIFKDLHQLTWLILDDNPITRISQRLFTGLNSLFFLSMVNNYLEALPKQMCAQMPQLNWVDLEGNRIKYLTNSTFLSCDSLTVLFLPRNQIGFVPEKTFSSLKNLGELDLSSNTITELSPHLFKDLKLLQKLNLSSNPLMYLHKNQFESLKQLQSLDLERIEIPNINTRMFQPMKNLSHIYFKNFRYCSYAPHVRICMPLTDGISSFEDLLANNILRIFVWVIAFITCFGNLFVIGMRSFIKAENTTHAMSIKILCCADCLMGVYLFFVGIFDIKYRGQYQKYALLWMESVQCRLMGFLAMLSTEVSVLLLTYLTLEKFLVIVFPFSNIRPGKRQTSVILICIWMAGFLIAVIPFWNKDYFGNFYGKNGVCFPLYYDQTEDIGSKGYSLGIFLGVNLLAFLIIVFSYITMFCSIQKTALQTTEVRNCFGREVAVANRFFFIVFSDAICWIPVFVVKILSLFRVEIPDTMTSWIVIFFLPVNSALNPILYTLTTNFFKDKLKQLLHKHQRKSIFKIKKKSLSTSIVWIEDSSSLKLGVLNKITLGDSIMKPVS
Method for LGR7 receptor: Briefly, HEK293T cells were plated out into 24-well plates (450,000 cells per well) or 48-well plates (225,000 cells per well), and transfected with pcDNA3.1/zeo plasmid containing the receptor of interest the following day as described above in Example 2. […] Non-specific binding was determined by addition of excess unlabelled relaxin (500 nM). Data were analysed using GraphPad Prism.
From the text for LGR8 (RXFP2) receptor: Data are presented as the mean±S.E.M. of at least 1 experiment (number performed shown in parentheses in Table 1) performed in triplicate.

Usually EC50 stands for the concentration at which the effect is half-maximal. A higher EC50 goes with a need for much substance. Broadly, the Ki is the equilibrium dissociation constant of an inhibitor or competing ligand from its target. Low values mean tighter binding, high ones weaker binding. For the molecule `CC[C@H](C)[C@@H]1NC(=O)[C@H](C)NC(=O)[C@H]([C@@H](C)CC)NC(=O)[C@H](CCC(N)=O)NC(=O)[C@H](C)NC(=O)[C@H](CCCNC(=N)N)NC(=O)[C@H](C(C)C)NC(=O)[C@H](CC(C)C)NC(=O)[C@H](CCC(=O)O)NC(=O)[C@H](CCCNC(=N)N)NC(=O)CNC(=O)[C@@H](NC(=O)[C@H](CC(C)C)NC(=O)[C@H](CCCCN)NC(=O)[C@@H](NC(=O)[C@@H](NC(=O)[C@H](CCC(=O)O)NC(=O)[C@H](CCC(=O)O)NC(=O)[C@H](CCSC)NC(=O)[C@H](Cc2c[nH]c3ccccc23)NC(=O)[C@H](CO)NC(=O)[C@@H](N)CC(=O)O)C(C)C)[C@@H](C)CC)CSSC[C@@H]2NC(=O)[C@@H](NC(=O)[C@H](CO)NC(=O)[C@H](CO)NC(=O)[C@H](CO)NC(=O)[C@H](CC(C)C)NC(=O)CNC(=O)[C@H](C)NC(=O)[C@H](CC(C)C)NC(=O)[C@@H](NC(=O)[C@@H](N)CC(=O)O)C(C)C)CSSC[C@H](NC(=O)CNC(=O)[C@H](Cc3c[nH]c4ccccc34)NC(=O)[C@H](CCCCN)NC2=O)C(=O)N[C@@H](CO)C(=O)N[C@@H](CCCCN)C(=O)N[C@@H](CO)C(=O)N[C@@H](CCC(=O)O)C(=O)N[C@@H]([C@@H](C)CC)C(=O)N[C@@H](CO)C(=O)N[C@@H](CO)C(=O)N[C@@H](CC(C)C)C(=O)N[C@H](C(=O)O)CSSC[C@@H](C(=O)NCC(=O)N[C@@H](CCSC)C(=O)N[C@@H](CO)C(=O)N[C@H](C(=O)N[C@@H](Cc2c[nH]c3ccccc23)C(=O)N[C@@H](CO)C(=O)O)[C@@H](C)O)NC1=O` [H2-B/H3-A], the half-maximal effective concentration (EC50) at LGR7 (RXFP1) receptor is 7.94 nM; on LGR8 (RXFP2) receptor it was 4.57 µM. The same molecule showed a Ki on LGR7 receptor of 158 nM.

`CC[C@H](C)[C@@H]1NC(=O)[C@H](C)NC(=O)[C@H]([C@@H](C)CC)NC(=O)[C@H](CCC(N)=O)NC(=O)[C@H](C)NC(=O)[C@H](CCCNC(=N)N)NC(=O)[C@H](C(C)C)NC(=O)[C@H](CC(C)C)NC(=O)[C@H](CCC(=O)O)NC(=O)[C@H](CCCNC(=N)N)NC(=O)CNC(=O)[C@@H](NC(=O)[C@H](CC(C)C)NC(=O)[C@H](CCCCN)NC(=O)[C@@H](NC(=O)[C@@H](NC(=O)[C@H](CCC(=O)O)NC(=O)[C@H](CCC(=O)O)NC(=O)[C@H](CCSC)NC(=O)[C@H](Cc2c[nH]c3ccccc23)NC(=O)[C@H](CO)NC(=O)[C@@H](N)CC(=O)O)C(C)C)[C@@H](C)CC)CSSC[C@@H]2NC(=O)[C@@H](NC(=O)[C@H](Cc3ccc(O)cc3)NC(=O)[C@H](CCCNC(=N)N)NC(=O)[C@H](C)NC(=O)[C@@H]3CCCN3C(=O)[C@H](CC(N)=O)NC(=O)[C@@H](NC(=O)[C@H](C)NC(=O)[C@H](C)NC(=O)[C@H](C)N)[C@@H](C)O)CSSC[C@H](NC(=O)CNC(=O)[C@H](CO)NC(=O)[C@H](CC(C)C)NC2=O)C(=O)N[C@@H]([C@@H](C)O)C(=O)N[C@@H](CCC(N)=O)C(=O)N[C@@H](CCC(N)=O)C(=O)N[C@@H](CC(=O)O)C(=O)N[C@@H](CC(C)C)C(=O)N[C@@H](CC(C)C)C(=O)N[C@@H]([C@@H](C)O)C(=O)N[C@@H](CC(C)C)C(=O)N[C@H](C(=O)N2CCC[C@H]2C(=O)N[C@@H](Cc2ccc(O)cc2)C(=O)O)CSSC[C@@H](C(=O)NCC(=O)N[C@@H](CCSC)C(=O)N[C@@H](CO)C(=O)N[C@H](C(=O)N[C@@H](Cc2c[nH]c3ccccc23)C(=O)N[C@@H](CO)C(=O)O)[C@@H](C)O)NC1=O` [H2-B/INSL3-A]: the EC50 on LGR7 (RXFP1) receptor is more than 1000 nM; on LGR8 (RXFP2) receptor, less than 1 µM. The molecule also registered a Ki on LGR7 receptor of 617 nM.
